# Data as given in ChEMBL document CHEMBL5257106, “Design, synthesis, and biological evaluation of novel HDAC inhibitors with a 3-(benzazol-2-yl)quinoxaline framework” (Bioorg Med Chem Lett, 2023).
# Legend:
# HCT-116 [1] = assay: Induction of apoptosis in human HCT-116 cells assessed as viable cells at 1 uM incubated for 24 hrs by Annexin V-FITC/PI staining based flow cytometry analysis (reference value: 93.2%); assay type: functional; conditions: Homo sapiens, HCT-116, read-out: Activity
# HCT-116 [2] = assay: Inhibition of cell migration in human HCT-116 cells measured upto 12 hrs by wound healing assay; assay type: functional, cell-based; conditions: dose 0.5-1 µM
# K562 = assay: Potency index, ratio of SAHA IC50 to test compound IC50 for antiproliferative activity against human K562 cells assessed as inhibition of cell growth by MTT assay; assay type: functional
smiles,measurement,setting,value
O=C(CCCCCCNc1nc2ccccc2nc1-c1nc2ccccc2o1)NO,viability at 1 µM,HCT-116 [1],48.1%
same,inhibition,HCT-116 [2],Dose-Dependent Effect
same,Ratio IC50,K562,2
